Laboratory results reported in patent US20050147565A1, “Pharmaceutical compositions for the treatment of asthma” (Schering Corporation, priority 2001, published 2005).

Columns and labels:
[1] = Andersen Cascade Impactor particle size distribution of the emitted dose of the metered dose inhaler; type: physicochemical; details: Formoterol/Mometasone 6/50 μg/actuation inhaler
From the text: The formulations of the present invention were further analyzed using an Andersen Cascade Impactor as described in Examples 6 and 7. The Andersen Cascade Impactor is widely used for measuring the particle size distribution of airborne particles and more specifically pharmaceutical aerosols. The eight stage Andersen Impactor separates the sample into nine size intervals when used with a backup filter after the last impaction stage. In FIGS. 1 to 4, this corresponds Stage 0 of particles having a particle size less than 10 μm to a particle size of 0.65-0.43 μm in stage 8, with the final stage corresponding to the filter for particles less than 0.43 μm. The measurement of the particle size at the “throat” in the figures corresponds to the entry port of the Impactor. The fine particle fraction is defined as the percentage of particles having a particle size of less than 4.7 μm. The fine particle dose is defined as the amount in μg per dose that is less than 4.7 μm in size in each actuation. The μg/shot is the total amount of emitted drug product that exits the metered dose inhaler upon actuation. The determination of the particle size distribution of the emitted dose of the formulation using an Andersen Cascade Impactor is known to one of skill in the art.
A formulation containing 6 μg of formoterol fumarate and 50 μg of mometasone furoate using HFA 227 in the absence of a bulking agent or carrier in a metered dose inhaler was analyzed by an Andersen Cascade Impactor to 5 analyze the amount of active drug ingredients and the particle size of the actives exiting the inhaler over time. […] The metered dose for both actives over time was also within acceptable limits (62.9 to 63.3 for mometasone and 6.6 to 6.5 for formoterol at the 4 month point). […]
A formulation containing 6 μg of formoterol fumarate and 50 μg of mometasone furoate using HFA 134a with lactose as a bulking agent in a metered dose inhaler was analyzed by an Andersen Cascade Impactor to analyze the amount of active drug ingredients and the particle size of the actives exiting the inhaler over time. […] Additionally, the metered dose actually delivered was also maintained over time within acceptable limits (64.1 to 63.7 for mometasone, 6.9 to 6.6 for formoterol). The fine particle fraction for both mometasone and formoterol was maintained within acceptable limits.

[2] = Drug Content Uniformity (DCU) through the life of a 120 dose MDI; type: physicochemical; details: Formoterol/Mometasone 6/50 μg/actuation inhaler
Experimental: The Drug Content Uniformity (DCU) of the inhaler was measured throughout the life of a 120 dose MDI to ascertain whether there was a consistency of dose of the active ingredients throughout the life of the product. Five canisters of each formulation (HFA 227 or HFA 134a) were analyzed and each canister delivered 120 actuations of medication and the amount of actives exiting the inhaler per actuation was measured at varying actuations, e.g., numbers 11, 12, 13, 14, (beginning) 59, 60, 61, 62 (middle) and 117, 118, 119 and 120 (end). Means were determined for the beginning, middle and end actuations, and an overall mean was determined and set forth in Examples 9 and 10 above.

[3] = cited from earlier work
[4] = Percent change in fine particle size after temperature cycling; type: physicochemical
From the text: A finer particle size distribution of the mometasone furoate improves the fine particle fraction of the formulation exiting the inhaler upon actuation of the metered dose inhaler. […] The aerodynamic particle size distribution is well within the range of a typical efficacious topical lung medication, e.g., greater than 50% of the particles are less than 4.7 microns.

[5] = cited from earlier work; remark: listed apart in the source
[6] = HFA 134a, low bulking agent (lactose), 1 Month, 4 C./40 C.
[7] = HFA 134a, low bulking agent (lactose), 1 Month, 40 C./75%
[8] = HFA 134a, low bulking agent (lactose), 3 Month, 4 C./40 C.
[9] = HFA 134a, low bulking agent (lactose), 4 Month, 25 C./60%
[10] = HFA 134a, low bulking agent (lactose), 4 Month, 40 C./75%
[11] = HFA 134a, low bulking agent (lactose), Initial
[12] = HFA 227, without bulking agent, 1 Month, 4 C./40 C.
[13] = HFA 227, without bulking agent, 1 Month, 40 C./75%
[14] = HFA 227, without bulking agent, 3 Month, 4 C./40 C.
[15] = HFA 227, without bulking agent, 4 Month, 25 C./60%
[16] = HFA 227, without bulking agent, 4 Month, 40 C./75%
[17] = HFA 227, without bulking agent, Initial
[18] = HFA 134a, low bulking agent, 1 Month, 4 C./40 C.
[19] = HFA 134a, low bulking agent, 1 Month, 40 C./75%
[20] = HFA 134a, low bulking agent, Initial
[21] = HFA 227, no bulking agent, 1 Month, 4 C./40 C.
[22] = HFA 227, no bulking agent, 1 Month, 40 C./75%
[23] = HFA 227, no bulking agent, Initial

COc1ccc(CC(C)NCC(O)c2ccc(O)c(NC=O)c2)cc1.COc1ccc(CC(C)NCC(O)c2ccc(O)c(NC=O)c2)cc1.O.O.O=C(O)/C=C/C(=O)O (racemic) [Formoterol Fumarate, (±)2-hydroxy-5-[(1RS)-1-hydroxy-2-[[(1RS)-2-(4-methoxyphenyly-1methylethyl]-amino]ethyl]formanilide fumarate dihydrate]
Fine Particle Dose (μg/shot) [1, 6]: 2.0 μg/shot
Fine Particle Fraction % [1, 6]: 38.0%
MMAD (microns) [1, 6]: 3.1 microns
Fine Particle Dose (μg/shot) [1, 7]: 2.1 μg/shot
Fine Particle Fraction % [1, 7]: 41.3%
MMAD (microns) [1, 7]: 2.9 microns
Fine Particle Dose (μg/shot) [1, 8]: 2.2 μg/shot
Fine Particle Fraction % [1, 8]: 40.2%
MMAD (microns) [1, 8]: 3.2 microns
Fine Particle Dose (μg/shot) [1, 9]: 2.3 μg/shot
Fine Particle Fraction % [1, 9]: 43.6%
MMAD (microns) [1, 9]: 3.0 microns
Fine Particle Dose (μg/shot) [1, 10]: 2.1 μg/shot
Fine Particle Fraction % [1, 10]: 40.3%
MMAD (microns) [1, 10]: 3.1 microns
Fine Particle Dose (μg/shot) [1, 11]: 2.4 μg/shot
Fine Particle Fraction % [1, 11]: 42.5%
MMAD (microns) [1, 11]: 2.9 microns
Fine Particle Dose (μg/shot) [1, 12]: 2.2 μg/shot
Fine Particle Fraction % [1, 12]: 39.0%
MMAD (microns) [1, 12]: 3.3 microns
μg/shot (metered dose) [1, 12]: 6.3 μg/shot
Fine Particle Dose (μg/shot) [1, 13]: 2.4 μg/shot
Fine Particle Fraction % [1, 13]: 41.1%
MMAD (microns) [1, 13]: 3.2 microns
μg/shot (metered dose) [1, 13]: 6.6 μg/shot
Fine Particle Dose (μg/shot) [1, 14]: 1.9 μg/shot
Fine Particle Fraction % [1, 14]: 35.2%
MMAD (microns) [1, 14]: 3.3 microns
μg/shot (metered dose) [1, 14]: 6.3 μg/shot
Fine Particle Dose (μg/shot) [1, 15]: 2.6 μg/shot
Fine Particle Fraction % [1, 15]: 47.3%
MMAD (microns) [1, 15]: 3.2 microns
μg/shot (metered dose) [1, 15]: 6.5 μg/shot
Fine Particle Dose (μg/shot) [1, 16]: 2.2 μg/shot
Fine Particle Fraction % [1, 16]: 40.1%
MMAD (microns) [1, 16]: 3.4 microns
μg/shot (metered dose) [1, 16]: 6.5 μg/shot
Fine Particle Dose (μg/shot) [1, 17]: 2.6 μg/shot
Fine Particle Fraction % [1, 17]: 46.3%
MMAD (microns) [1, 17]: 3.2 microns
μg/shot (metered dose) [1, 17]: 6.6 μg/shot
Overall Mean μg/shot [2, 18]: 5.6 μg/shot
Overall Mean μg/shot [2, 19]: 6.0 μg/shot
Overall Mean μg/shot [2, 20]: 6.2 μg/shot
Overall Mean μg/shot [2, 21]: 5.5 μg/shot
Overall Mean μg/shot [2, 22]: 5.7 μg/shot
Overall Mean μg/shot [2, 23]: 5.7 μg/shot
solubility in acetone [3]: practically insoluble
solubility in diethyl ether ([3]; diethyl ether): practically insoluble
solubility in ethanol [3]: sparingly soluble
solubility in ethyl acetate ([3]; ethyl acetate): practically insoluble
solubility in glacial acetic acid ([3]; glacial acetic acid): freely soluble
solubility in isopropanol [3]: sparingly soluble
solubility in methanol [3]: soluble
solubility in water [3]: slightly soluble

C[C@@H]1C[C@H]2[C@@H]3CCC4=CC(=O)C=C[C@]4(C)[C@@]3(Cl)[C@@H](O)C[C@]2(C)[C@@]1(OC(=O)c1ccco1)C(=O)CCl [Mometasone Furoate, 9,21-Dichloro-11(beta), 17-dihydroxy-16(alpha)-methylpregna-1,4-diene-3,20-dione 17-(2 furoate)]
percent change in fine particle size ([4]; grade of mometasone used in Example 6 (coarse), two weeks of temperature cycling at −10° C. and 40° C.): about 50%
percent change in fine particle size ([4]; similar mdi using mometasone furoate alone, finer grade of mometasone furoate, same cycling conditions (two weeks, −10° C. and 40° C.)): ≤ 15%
partition coefficient between octanol and water [5]: greater than 5000
Fine Particle Dose (μg/shot) [1, 6]: 10.6 μg/shot
Fine Particle Fraction % [1, 6]: 20.1%
MMAD (microns) [1, 6]: 4.3 microns
μg/shot (metered dose) [1, 6]: 65.0 μg/shot
Fine Particle Dose (μg/shot) [1, 7]: 10.1 μg/shot
Fine Particle Fraction % [1, 7]: 20.1%
MMAD (microns) [1, 7]: 4.3 microns
μg/shot (metered dose) [1, 7]: 62.2 μg/shot
Fine Particle Dose (μg/shot) [1, 8]: 10.0 μg/shot
Fine Particle Fraction % [1, 8]: 20.0%
MMAD (microns) [1, 8]: 4.6 microns
μg/shot (metered dose) [1, 8]: 62.6 μg/shot
Fine Particle Dose (μg/shot) [1, 9]: 11.4 μg/shot
Fine Particle Fraction % [1, 9]: 22.6%
MMAD (microns) [1, 9]: 4.3 microns
μg/shot (metered dose) [1, 9]: 62.1 μg/shot
Fine Particle Dose (μg/shot) [1, 10]: 8.8 μg/shot
Fine Particle Fraction % [1, 10]: 17.7%
MMAD (microns) [1, 10]: 4.5 microns
μg/shot (metered dose) [1, 10]: 63.7 μg/shot
Fine Particle Dose (μg/shot) [1, 11]: 13.6 μg/shot
Fine Particle Fraction % [1, 11]: 25.7%
MMAD (microns) [1, 11]: 3.9 microns
μg/shot (metered dose) [1, 11]: 64.1 μg/shot
Fine Particle Dose (μg/shot) [1, 12]: 9.2 μg/shot
Fine Particle Fraction % [1, 12]: 16.4%
MMAD (microns) [1, 12]: 5.0 microns
μg/shot (metered dose) [1, 12]: 62.6 μg/shot
Fine Particle Dose (μg/shot) [1, 13]: 13.9 μg/shot
Fine Particle Fraction % [1, 13]: 25.3%
MMAD (microns) [1, 13]: 4.1 microns
μg/shot (metered dose) [1, 13]: 62.4 μg/shot
Fine Particle Dose (μg/shot) [1, 14]: 5.3 μg/shot
Fine Particle Fraction % [1, 14]: 9.8%
MMAD (microns) [1, 14]: 6.3 microns
μg/shot (metered dose) [1, 14]: 60.5 μg/shot
Fine Particle Dose (μg/shot) [1, 15]: 16.1 μg/shot
Fine Particle Fraction % [1, 15]: 30.4%
MMAD (microns) [1, 15]: 4.2 microns
μg/shot (metered dose) [1, 15]: 61.5 μg/shot
Fine Particle Dose (μg/shot) [1, 16]: 10.4 μg/shot
Fine Particle Fraction % [1, 16]: 18.6%
MMAD (microns) [1, 16]: 4.6 microns
μg/shot (metered dose) [1, 16]: 63.3 μg/shot
Fine Particle Dose (μg/shot) [1, 17]: 19.7 μg/shot
Fine Particle Fraction % [1, 17]: 36.5%
MMAD (microns) [1, 17]: 3.7 microns
μg/shot (metered dose) [1, 17]: 62.9 μg/shot
Overall Mean μg/shot [2, 18]: 55.7 μg/shot
Overall Mean μg/shot [2, 19]: 57.0 μg/shot
Overall Mean μg/shot [2, 20]: 59.1 μg/shot
Overall Mean μg/shot [2, 21]: 55.6 μg/shot
Overall Mean μg/shot [2, 22]: 54.9 μg/shot
Overall Mean μg/shot [2, 23]: 54.7 μg/shot
solubility in acetone [3]: soluble
solubility in chloroform ([3]; chloroform): soluble
solubility in ethanol [3]: slightly soluble
solubility in isopropanol [3]: slightly soluble
solubility in methanol [3]: slightly soluble
solubility in tetrahydrofuran ([3]; tetrahydrofuran): freely soluble
solubility in water [3]: practically insoluble
